ChEMBL document CHEMBL6092180 (Eur J Med Chem, 2024)
Values after ≈ are worked out from the molar mass of the structure shown.

Assays:
Format in all cases: functional
[1] = test system: Candida tropicalis; assay: Antifungal activity against Candida tropicalis GIM 2.183 assessed as inhibition of fungal growth by CLSI M27-A3 guidelines based method
[2] = test system: Cryptococcus neoformans; assay: Antifungal activity against Cryptococcus neoformans CGMCC 2.3161 assessed as inhibition of fungal growth by CLSI M27-A3 guidelines based method
[3] = test system: Pichia kudriavzevii; assay: Antifungal activity against Candida krusei GIM 2.1 assessed as inhibition of fungal growth by CLSI M27-A3 guidelines based method
[4] = test system: Candida albicans; assay: Antifungal activity against Candida albicans GIM 2.194 assessed as inhibition of fungal growth by CLSI M27-A3 guidelines based method
[5] = test system: Candida parapsilosis; assay: Antifungal activity against Candida parapsilosis GIM 2.190 assessed as inhibition of fungal growth by CLSI M27-A3 guidelines based method; conditions: Lodderomyces parapsilosis
[6] = test system: Nakaseomyces glabratus; assay: Antifungal activity against Candida glabrata assessed as inhibition of fungal growth by CLSI M27-A3 guidelines based method
[7] = test system: Candida albicans; assay: Antifungal activity against Candida albicans SC5314 assessed as inhibition of fungal growth by CLSI M27-A3 guidelines based method

| MIC80 [1] | MIC80 [2] | MIC80 [3] | MIC80 [4] | MIC80 [5] | MIC80 [6] | MIC80 [7] | SMILES |
| --- | --- | --- | --- | --- | --- | --- | --- |
| 0.013 mg/L (≈ 0.0266 µM) | 0.05 mg/L (≈ 0.102 µM) | 0.2 mg/L (≈ 0.409 µM) | 0.013 mg/L (≈ 0.0266 µM) | 0.013 mg/L (≈ 0.0266 µM) | 0.8 mg/L (≈ 1.64 µM) | 0.013 mg/L (≈ 0.0266 µM) | COc1ccc(C#Cc2ccc(CN(C)CC(O)(Cn3cncn3)c3ccc(F)cc3F)cc2)cc1 (stereo unspecified) |
| 0.013 mg/L (≈ 0.0273 µM) | 0.013 mg/L (≈ 0.0273 µM) | 0.05 mg/L (≈ 0.105 µM) | 0.006 mg/L (≈ 0.0126 µM) | 0.006 mg/L (≈ 0.0126 µM) | 0.03 mg/L (≈ 0.063 µM) | 0.006 mg/L (≈ 0.0126 µM) | CN(Cc1ccc(C#Cc2ccc(F)cc2)cc1)CC(O)(Cn1cncn1)c1ccc(F)cc1F (stereo unspecified) |
| 0.006 mg/L (≈ 0.0126 µM) | 0.006 mg/L (≈ 0.0126 µM) | 0.01 mg/L (≈ 0.021 µM) | 0.013 mg/L (≈ 0.0273 µM) | 0.006 mg/L (≈ 0.0126 µM) | 0.05 mg/L (≈ 0.105 µM) | 0.006 mg/L (≈ 0.0126 µM) | CN(Cc1ccc(C#Cc2ccccc2F)cc1)CC(O)(Cn1cncn1)c1ccc(F)cc1F (stereo unspecified) |
| 0.025 mg/L (≈ 0.0529 µM) | 0.025 mg/L (≈ 0.0529 µM) | 0.8 mg/L (≈ 1.69 µM) | 0.013 mg/L (≈ 0.0275 µM) | 0.013 mg/L (≈ 0.0275 µM) | 0.4 mg/L (≈ 0.846 µM) | 0.013 mg/L (≈ 0.0275 µM) | Cc1cccc(C#Cc2ccc(CN(C)CC(O)(Cn3cncn3)c3ccc(F)cc3F)cc2)c1 (stereo unspecified) |
| 0.013 mg/L (≈ 0.024 µM) | 0.05 mg/L (≈ 0.0922 µM) | 0.2 mg/L (≈ 0.369 µM) | 0.013 mg/L (≈ 0.024 µM) | 0.013 mg/L (≈ 0.024 µM) | 0.2 mg/L (≈ 0.369 µM) | 0.025 mg/L (≈ 0.0461 µM) | CN(Cc1ccc(C#Cc2ccc(OC(F)(F)F)cc2)cc1)CC(O)(Cn1cncn1)c1ccc(F)cc1F (stereo unspecified) |
| 1.6 mg/L (≈ 3.03 µM) | 3.2 mg/L (≈ 6.05 µM) | 3.2 mg/L (≈ 6.05 µM) | 3.2 mg/L (≈ 6.05 µM) | 1.6 mg/L (≈ 3.03 µM) | 3.2 mg/L (≈ 6.05 µM) | 1.6 mg/L (≈ 3.03 µM) | C[C@@H](N(C)Cc1ccc(C#Cc2ccc(C(C)(C)C)cc2)cc1)[C@](O)(Cn1cncn1)c1ccc(F)cc1F |
| 0.006 mg/L (≈ 0.0117 µM) | 0.025 mg/L (≈ 0.0489 µM) | 0.01 mg/L (≈ 0.0196 µM) | 0.006 mg/L (≈ 0.0117 µM) | 0.006 mg/L (≈ 0.0117 µM) | 0.03 mg/L (≈ 0.0587 µM) | 0.006 mg/L (≈ 0.0117 µM) | CN(Cc1ccc(C#Cc2ccc(Cl)cc2F)cc1)CC(O)(Cn1cncn1)c1ccc(F)cc1F (stereo unspecified) |
| 0.006 mg/L (≈ 0.012 µM) | 0.006 mg/L (≈ 0.012 µM) | 0.03 mg/L (≈ 0.0599 µM) | 0.006 mg/L (≈ 0.012 µM) | 0.006 mg/L (≈ 0.012 µM) | 0.03 mg/L (≈ 0.0599 µM) | 0.006 mg/L (≈ 0.012 µM) | CC(=O)c1ccc(C#Cc2ccc(CN(C)CC(O)(Cn3cncn3)c3ccc(F)cc3F)cc2)cc1 (stereo unspecified) |
| 0.013 mg/L (≈ 0.0245 µM) | 0.025 mg/L (≈ 0.0471 µM) | 0.2 mg/L (≈ 0.377 µM) | 0.013 mg/L (≈ 0.0245 µM) | 0.006 mg/L (≈ 0.0113 µM) | 0.1 mg/L (≈ 0.188 µM) | 0.013 mg/L (≈ 0.0245 µM) | CCOC(=O)c1ccc(C#Cc2ccc(CN(C)CC(O)(Cn3cncn3)c3ccc(F)cc3F)cc2)cc1 (stereo unspecified) |

The remaining lines, values behind:

| SMILES | MIC80 [1] | MIC80 [2] | MIC80 [3] | MIC80 [4] | MIC80 [5] | MIC80 [6] | MIC80 [7] |
| --- | --- | --- | --- | --- | --- | --- | --- |
| CN(Cc1ccc(C#Cc2ccc(Br)c(F)c2)cc1)CC(O)(Cn1cncn1)c1ccc(F)cc1F (stereo unspecified) | 0.006 mg/L (≈ 0.0108 µM) | 0.025 mg/L (≈ 0.045 µM) | 0.01 mg/L (≈ 0.018 µM) | 0.006 mg/L (≈ 0.0108 µM) | 0.006 mg/L (≈ 0.0108 µM) | 0.03 mg/L (≈ 0.054 µM) | 0.006 mg/L (≈ 0.0108 µM) |
| CC(C)c1ccc(C#Cc2ccc(CN(C)CC(O)(Cn3cncn3)c3ccc(F)cc3F)cc2)cc1 (stereo unspecified) | 0.013 mg/L (≈ 0.026 µM) | 0.025 mg/L (≈ 0.0499 µM) | 0.2 mg/L (≈ 0.4 µM) | 0.025 mg/L (≈ 0.0499 µM) | 0.05 mg/L (≈ 0.0999 µM) | 0.1 mg/L (≈ 0.2 µM) | 0.013 mg/L (≈ 0.026 µM) |
| CN(Cc1ccc(C#Cc2ccncc2)cc1)CC(O)(Cn1cncn1)c1ccc(F)cc1F (stereo unspecified) | 0.013 mg/L (≈ 0.0283 µM) | 0.2 mg/L (≈ 0.435 µM) | 0.2 mg/L (≈ 0.435 µM) | 0.006 mg/L (≈ 0.0131 µM) | 0.013 mg/L (≈ 0.0283 µM) | 0.4 mg/L (≈ 0.871 µM) | 0.013 mg/L (≈ 0.0283 µM) |
| Cc1ccccc1C#Cc1ccc(CN(C)CC(O)(Cn2cncn2)c2ccc(F)cc2F)cc1 (stereo unspecified) | 0.006 mg/L (≈ 0.0127 µM) | 0.025 mg/L (≈ 0.0529 µM) | 0.05 mg/L (≈ 0.106 µM) | 0.006 mg/L (≈ 0.0127 µM) | 0.013 mg/L (≈ 0.0275 µM) | 0.1 mg/L (≈ 0.212 µM) | 0.013 mg/L (≈ 0.0275 µM) |
| CN(Cc1ccc(C#Cc2ccccn2)cc1)CC(O)(Cn1cncn1)c1ccc(F)cc1F (stereo unspecified) | 0.013 mg/L (≈ 0.0283 µM) | 0.2 mg/L (≈ 0.435 µM) | 0.4 mg/L (≈ 0.871 µM) | 0.25 mg/L (≈ 0.544 µM) | 0.05 mg/L (≈ 0.109 µM) | 1.6 mg/L (≈ 3.48 µM) | 0.013 mg/L (≈ 0.0283 µM) |
| CN(Cc1ccc(C#Cc2ccc(C=O)cc2)cc1)CC(O)(Cn1cncn1)c1ccc(F)cc1F (stereo unspecified) | 0.013 mg/L (≈ 0.0267 µM) | 0.05 mg/L (≈ 0.103 µM) | 0.05 mg/L (≈ 0.103 µM) | 0.013 mg/L (≈ 0.0267 µM) | 0.013 mg/L (≈ 0.0267 µM) | 0.1 mg/L (≈ 0.206 µM) | 0.013 mg/L (≈ 0.0267 µM) |
| CN(Cc1ccc(C#Cc2cc(F)c(Cl)cc2F)cc1)CC(O)(Cn1cncn1)c1ccc(F)cc1F (stereo unspecified) | 0.006 mg/L (≈ 0.0113 µM) | 0.025 mg/L (≈ 0.0473 µM) | 0.01 mg/L (≈ 0.0189 µM) | 0.006 mg/L (≈ 0.0113 µM) | 0.006 mg/L (≈ 0.0113 µM) | 0.01 mg/L (≈ 0.0189 µM) | 0.006 mg/L (≈ 0.0113 µM) |
| CN(Cc1ccc(C#Cc2ccc(-c3ccccc3)cc2)cc1)CC(O)(Cn1cncn1)c1ccc(F)cc1F (stereo unspecified) | 0.05 mg/L (≈ 0.0935 µM) | 0.05 mg/L (≈ 0.0935 µM) | 0.2 mg/L (≈ 0.374 µM) | 0.013 mg/L (≈ 0.0243 µM) | 0.05 mg/L (≈ 0.0935 µM) | 0.4 mg/L (≈ 0.748 µM) | 0.05 mg/L (≈ 0.0935 µM) |
| CN(Cc1ccc(C#Cc2ccc(Cl)c(F)c2)cc1)CC(O)(Cn1cncn1)c1ccc(F)cc1F (stereo unspecified) | 0.006 mg/L (≈ 0.0117 µM) | 0.013 mg/L (≈ 0.0254 µM) | 0.03 mg/L (≈ 0.0587 µM) | 0.006 mg/L (≈ 0.0117 µM) | 0.006 mg/L (≈ 0.0117 µM) | 0.01 mg/L (≈ 0.0196 µM) | 0.006 mg/L (≈ 0.0117 µM) |
